Results as given in PMC8034656 (2021).

System: single oligonucleotide with a low probability of self-hybridization (ssDNA) (DNA, single strand) GAACAACGCTCCAACCATCGC
Experiment: absorption and fluorescence titration
Details: 3 µM DOX; absorption changes, fluorescence hardly quenched

binding: weak
SMILES: COc1cccc2c1C(=O)c1c(O)c3c(c(O)c1C2=O)C[C@@](O)(C(=O)CO)C[C@@H]3O[C@H]1C[C@H](N)[C@H](O)[C@H](C)O1
